# Results as given in the supplement of paper PMC11061612.
# Legend:
# Test in all cases: combination Emax (second highest fraction inhibited in the dose matrix, 72 h); higher = more inhibition; extreme values may be limits of the assay
# [1] = test system: JURL-MK1 (Chronic Myelogenous Leukemia)
# Method in brief: (§1)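 Bliss excess equals the observed combination effect minus the expected value EA + EB − EA·EB, where EA and EB are the effects of each agent alone. Combination Emax is the second-highest inhibition within the matrix. Inhibition was scaled from CellTiter-Glo 2.0 luminescence, with 0 set by vehicle wells and 1 by blank wells, after 72 hours of two-drug dosing of cells plated in 1536-well plates.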
# [2] = test system: MRK-nu-1 (Breast Carcinoma)
# Method in brief: as §1
# [3] = test system: NCI-H1944 (Lung Adenocarcinoma)
# Method in brief: as §1
# [4] = test system: HT-3 (Cervical Carcinoma)
# Method in brief: as §1
# [5] = test system: SUP-HD1 (Hodgkin's Lymphoma)
# Method in brief: as §1
# [6] = test system: DK-MG (Glioblastoma)
# Method in brief: as §1
# [7] = test system: NTERA-2-cl-D1 (Other Solid Carcinomas)
# Method in brief: as §1
# [8] = test system: COR-L105 (Lung Adenocarcinoma)
# Method in brief: as §1
# [9] = test system: TOV-21G (Ovarian Carcinoma)
# Method in brief: as §1
# [10] = test system: NCI-H2023 (Non-Small Cell Lung Carcinoma)
# Method in brief: as §1
# [11] = test system: MG-63 (Osteosarcoma)
# Method in brief: as §1
# [12] = test system: NCI-H2452 (Mesothelioma)
# Method in brief: as §1
# [13] = test system: NCI-H1975 (Lung Adenocarcinoma)
# Method in brief: as §1
# [14] = test system: NCI-H2170 (Squamous Cell Lung Carcinoma)
# Method in brief: as §1
# [15] = test system: NCI-H1648 (Lung Adenocarcinoma)
# Method in brief: as §1
# [16] = test system: BT-474 (Breast Carcinoma)
# Method in brief: as §1
# [17] = test system: OCI-M1 (Acute Myeloid Leukemia)
# Method in brief: as §1
# [18] = test system: OVKATE (Ovarian Carcinoma)
# Method in brief: as §1
# [19] = test system: SNU-1 (Gastric Carcinoma)
# Method in brief: as §1
# [20] = test system: MDA-MB-175-VII (Breast Carcinoma)
# Method in brief: as §1
Structure (SMILES),combination Emax [1],combination Emax [2],combination Emax [3],combination Emax [4],combination Emax [5],combination Emax [6],combination Emax [7],combination Emax [8],combination Emax [9],combination Emax [10],combination Emax [11],combination Emax [12],combination Emax [13],combination Emax [14],combination Emax [15],combination Emax [16],combination Emax [17],combination Emax [18],combination Emax [19],combination Emax [20]
"CN(C)CCCOc1ccc(-c2ccc3ncc4c(c3c2)n(C2CCOCC2)c(=O)n4C)cn1 [AZD0156] + C=CCn1c(=O)c2cnc(Nc3ccc(N4CCN(C)CC4)cc3)nc2n1-c1cccc(C(C)(C)O)n1 [AZD1775] (first compound max 1 µM, partner max 1 µM)",0.989,0.246,0.618,0.331,0.836,0.331,0.376,0.418,0.556,0.633,0.526,0.589,0.356,0.7,0.587,0.195,0.869,0.336,0.623,0.299
"C=CCn1c(=O)c2cnc(Nc3ccc(N4CCN(C)CC4)cc3)nc2n1-c1cccc(C(C)(C)O)n1 [AZD1775] + C[C@@H]1COCCN1C2=NC(=NC(=C2)C3(CC3)[S@](=N)(=O)C)C4=C5C=CNC5=NC=C4 [AZD6738] (first compound max 1 µM, partner max 10 µM)",1,0.802,0.852,0.832,0.887,0.42,0.943,0.595,0.71,0.885,0.854,0.747,0.477,,0.833,0.316,0.969,0.422,0.817,0.405
"COc1nnc2ccc(N3CCC(c4ccc(OCCN5CCN(C)C(=O)[C@H]5C)cc4)CC3)nn12 [AZD5153] + CN(CC[C@H](CSC1=CC=CC=C1)NC2=C(C=C(C=C2)S(=O)(=O)NC(=O)C3=CC=C(C=C3)N4CCC(CC4)[C@H](C5=CC=CC=C5C6=CC=C(C=C6)Cl)O)S(=O)(=O)C(F)(F)F)CCO [AZD4320] (first compound max 1 µM, 7x7, partner max 1 µM)",0.994,,0.616,0.3,0.988,0.614,,,0.807,,,,0.643,0.838,,0.531,1,,0.8,
"Cc1c2c(nn1C)CSCc1cc(n(C)n1)CSc1cc(c3ccccc3c1)OCCCc1c(C(=O)O)n(C)c3c-2c(Cl)ccc13 [AZD5991] + Cc1cc2ncnn2cc1Nc1ncc2c(n1)n(C1CCOCC1)c(=O)n2C [AZD7648] (first compound max 1 µM, 7x7, partner max 10 µM)",0.773,1,0.384,0.353,0.576,0.509,0.662,0.33,,0.441,0.329,0.409,0.46,0.397,0.892,0.301,0.145,0.284,0.485,0.263
"Cc1c2c(nn1C)CSCc1cc(n(C)n1)CSc1cc(c3ccccc3c1)OCCCc1c(C(=O)O)n(C)c3c-2c(Cl)ccc13 [AZD5991] + Cn1cnc2c(F)c(Nc3ccc(Br)cc3Cl)c(C(=O)NOCCO)cc21 [Selumetinib] (first compound max 1 µM, 7x7, partner max 3 µM)",0.952,1,0.304,0.789,0.593,0.689,0.562,0.463,0.335,0.294,0.251,0.32,0.816,0.184,0.844,0.246,0.618,0.265,0.605,
"C[C@@H](Oc1cc(-c2cnn(C3CCNCC3)c2)cnc1N)c1c(Cl)ccc(F)c1Cl [Crizotinib] + Cn1cnc2c(F)c(Nc3ccc(Br)cc3Cl)c(C(=O)NOCCO)cc21 [Selumetinib] (first compound max 10 µM, 7x7, partner max 10 µM)",,0.224,,,,,0.742,0.472,,0.57,0.672,0.551,,,0.58,,,0.193,,0.267
"CS(=O)(=O)CCNCc1ccc(-c2ccc3ncnc(Nc4ccc(OCc5cccc(F)c5)c(Cl)c4)c3c2)o1 [Lapatinib] + Cn1cnc2c(F)c(Nc3ccc(Br)cc3Cl)c(C(=O)NOCCO)cc21 [Selumetinib] (first compound max 10 µM, 7x7, partner max 10 µM)",,0.441,,,,,0.339,0.682,,0.297,0.453,0.466,,,0.764,,,0.31,,0.993
"CS(=O)(=O)CCNCc1ccc(-c2ccc3ncnc(Nc4ccc(OCc5cccc(F)c5)c(Cl)c4)c3c2)o1 [Lapatinib] + NC1(c2ccc(-c3nc4ccn5c(=O)[nH]nc5c4cc3-c3ccccc3)cc2)CCC1 [MK-2206] (first compound max 10 µM, 7x7, partner max 10 µM)",,0.361,0.941,,,,0.911,0.825,,0.637,0.924,0.554,,,0.99,,0.844,0.537,,1
"O=C(c1cc(Cc2n[nH]c(=O)c3ccccc23)ccc1F)N1CCN(C(=O)C2CC2)CC1 [Olaparib] + CC1(C)CCC(CN2CCN(c3ccc(C(=O)NS(=O)(=O)c4ccc(NCC5CCOCC5)c([N+](=O)[O-])c4)c(Oc4cnc5[nH]ccc5c4)c3)CC2)=C(c2ccc(Cl)cc2)C1 [Venetoclax] (first compound max 10 µM, 7x7, partner max 1 µM)",,0.293,,,,,0.383,0.128,,0.134,0.299,0.143,,,0.118,,,0.122,,0.297
"O=C(c1cc(Cc2n[nH]c(=O)c3ccccc23)ccc1F)N1CCN(C(=O)C2CC2)CC1 [Olaparib] + CN(CC[C@H](CSC1=CC=CC=C1)NC2=C(C=C(C=C2)S(=O)(=O)NC(=O)C3=CC=C(C=C3)N4CCC(CC4)[C@H](C5=CC=CC=C5C6=CC=C(C=C6)Cl)O)S(=O)(=O)C(F)(F)F)CCO [AZD4320] (first compound max 10 µM, 7x7, partner max 1 µM)",,0.395,,,,,0.689,0.219,,0.165,0.332,0.182,,,0.359,,,0.168,,0.389
"O=C(c1cc(Cc2n[nH]c(=O)c3ccccc23)ccc1F)N1CCN(C(=O)C2CC2)CC1 [Olaparib] + COc1nnc2ccc(N3CCC(c4ccc(OCCN5CCN(C)C(=O)[C@H]5C)cc4)CC3)nn12 [AZD5153] (first compound max 10 µM, 7x7, partner max 1 µM)",,0.467,,,,,0.649,0.404,,0.344,0.717,0.407,,,0.684,,,0.264,,0.316
"CC(=O)c1c(C)c2cnc(Nc3ccc(N4CCNCC4)cn3)nc2n(C2CCCC2)c1=O [Palbociclib] + CN(CC[C@H](CSC1=CC=CC=C1)NC2=C(C=C(C=C2)S(=O)(=O)NC(=O)C3=CC=C(C=C3)N4CCC(CC4)[C@H](C5=CC=CC=C5C6=CC=C(C=C6)Cl)O)S(=O)(=O)C(F)(F)F)CCO [AZD4320] (first compound max 10 µM, 7x7, partner max 1 µM)",1,,0.628,0.0805,0.946,0.389,,,0.626,,,,0.471,0.8,,0.124,0.994,,0.831,
"CCc1c2c(nc3ccc(O)cc13)-c1cc3c(c(=O)n1C2)COC(=O)[C@]3(O)CC [SN-38] + O=C(c1cc(Cc2n[nH]c(=O)c3ccccc23)ccc1F)N1CCN(C(=O)C2CC2)CC1 [Olaparib] (first compound max 0.3 µM, 7x7, partner max 10 µM)",1,0.868,0.634,0.979,0.895,0.259,1,0.401,,0.857,0.896,0.316,0.545,0.969,0.915,,,0.224,0.926,0.649
"Cc1nc(-c2cn3c(n2)-c2ccc(-c4cnn(C(C)(C)C(N)=O)c4)cc2OCC3)n(C(C)C)n1 [Taselisib] + O=C(Nc1ccc2[nH]nc(-c3ccncc3)c2c1)[C@@H]1CCN(CC(=O)N2CCN(c3ccc(-c4ncccn4)cc3)CC2)C1 [SCH772984] (first compound max 10 µM, 7x7, partner max 5 µM)",,0.542,,,,,0.64,0.788,,0.665,0.746,0.534,,,1,,,0.423,,1
"CC1(C)CCC(CN2CCN(c3ccc(C(=O)NS(=O)(=O)c4ccc(NCC5CCOCC5)c([N+](=O)[O-])c4)c(Oc4cnc5[nH]ccc5c4)c3)CC2)=C(c2ccc(Cl)cc2)C1 [Venetoclax] + CS(=O)(=O)CCNCc1ccc(-c2ccc3ncnc(Nc4ccc(OCc5cccc(F)c5)c(Cl)c4)c3c2)o1 [Lapatinib] (first compound max 1 µM, 7x7, partner max 10 µM)",,0.114,,,,,0.2,0.587,,0.195,0.302,0.29,,,0.624,,,0.182,,0.937
